Data set [1] deals with Quadruplex DNA. Put plainly: Stabilization of c-MYC G4 quadruplex DNA Pu22 (unknown origin) assessed as change in melting temperature at 2 uM by CD spectroscopy. The class given is nucleic-acid assay.
Data set [2] deals with Quadruplex DNA. In words: Binding affinity to c-MYC G4- quadruplex DNA Pu22 (unknown origin) assessed as binding constant by SPR analysis. The class given is nucleic-acid assay. In general terms: In SPR one partner is held on a chip, and binding of the other changes the refractive index at the surface.
Data set [3] can be described thus: Binding affinity to G-rich KRAS DNA (unknown origin) assessed as binding constant by SPR analysis.
A short description of data set [4]: Binding affinity to G-rich HRAS DNA (unknown origin) assessed as binding constant by SPR analysis.
Data set [5] in a line: Binding affinity to G-rich NRAS RNA (unknown origin) assessed as binding constant by SPR analysis.
A short description of data set [6]: Binding affinity to human G-rich Htg22 DNA assessed as binding constant by SPR analysis.
The nature of data set [7]: Binding affinity to Hairpin DNA (unknown origin) assessed as binding constant by SPR analysis.
Data set [8] has as its target Quadruplex DNA. In words: Binding affinity to c-MYC G4 quadruplex DNA Pu22 (unknown origin) assessed as binding constant by SPR analysis. The class given is nucleic-acid assay.
The next data set deals with RNA. In words: Binding affinity to NRAS RNA mutant (unknown origin) assessed as binding constant by SPR analysis.
Data set [9] deals with HepG2. Put plainly: Cytotoxicity against human HepG2 cells assessed as reduction in cell viability measured after 48 hrs by MTT assay. In kind it is functional, cell-based. The settings on record: HepG2, 48 h. For orientation: Tetrazolium dyes change colour on reduction, which living cells bring about.
Data set [10] concerns MDA-MB-231. Put plainly: Cytotoxicity against human MDA-MB-231 cells assessed as reduction in cell viability measured after 48 hrs by MTT assay. The class given is functional, cell-based. The settings on record: MDA-MB-231, 48 h.
Data set [11] can be described thus: Cytotoxicity against human HBL-100 cells assessed as reduction in cell viability measured after 48 hrs by MTT assay. The class given is toxicity, cell-based.
Data set [12] relates to NM23-H2/c-MYC G4 quadruplex DNA. In words: Disruption of NM23-H2/c-MYC G4 quadruplex DNA (unknown origin) interaction incubated for 1 hrs by ELISA. In kind it is protein assay.
The subject of data set [13] is BLM/c-MYC G4 quadruplex DNA. In words: Disruption of BLM/c-MYC G4 quadruplex DNA (unknown origin) interaction incubated for 1 hrs by ELISA. The class given is protein assay. In general terms: An ELISA detects its analyte on a solid surface through an enzyme-linked reagent.
Data set [14] has as its system DHX36/c-MYC G4 quadruplex DNA. In words: Disruption of DHX36/c-MYC G4 quadruplex DNA (unknown origin) interaction incubated for 1 hrs by ELISA. The class given is protein assay.
Data set [15] has as its system MDA-MB-231. In words: Cytotoxicity against human MDA-MB-231 cells measured after 48 hrs. The class given is functional, cell-based.
The subject of data set [16] is Quadruplex DNA. In words: Inhibition of c-MYC G4 quadruplex DNA in HEK293T cells co-transfected with Renilla and firefly luciferase assessed as decrease in relative luciferase at 2.5 to 5 uM measured after 24 hrs by dual luciferase reporter assay. In kind it is cell-based. The settings on record: Homo sapiens, dose 2.5-5 µM.
For data set [17], the system named is Quadruplex DNA. Put plainly: Inhibition of c-MYC G4 quadruplex DNA in HEK293T cells co-transfected with Renilla and firefly luciferase assessed as decrease in relative luciferase measured after 24 hrs by dual luciferase reporter assay. The class given is cell-based. The settings on record: Homo sapiens.
Data set [18] relates to MDA-MB-231. Put plainly: Downregulation of c-MYC mRNA level in human MDA-MB-231 cells measured after 24 hrs by RT-PCR analysis. The class given is functional, cell-based.
The subject of data set [19] is MDA-MB-231. In words: Downregulation of c-MYC expression in human MDA-MB-231 cells measured after 48 hrs by western blot analysis. The class given is functional, cell-based.
In a further data set the test system is MCF7. In words: Cytotoxicity against human MCF7 cells measured after 48 hrs. The class given is functional, cell-based.
Data set [20] has as its system HepG2. In words: Cytotoxicity against human HepG2 cells measured after 48 hrs. The class given is functional, cell-based.
A further data set concerns SiHa. Put plainly: Cytotoxicity against human SiHa cells measured after 48 hrs. In kind it is functional, cell-based.
Data set [21] concerns MDA-MB-231. Put plainly: Antitumor activity against human MDA-MB-231 cells xenografted in BALB/c-nu/nu mouse assessed as relative increment ratio at 2.5 mg/kg, ip measured for 24 days. The class given is functional. The settings on record: time 24 day.
For data set [22], the system named is MDA-MB-231. Put plainly: Antitumor activity against human MDA-MB-231 cells xenografted in BALB/c-nu/nu mouse assessed as tumor growth inhibition at 2.5 mg/kg, ip measured for 24 days. The class given is functional. The settings on record: MDA-MB-231, 576 h, time 24 day, read-out: TGI.
Data set [23] concerns Quadruplex DNA. In words: Inhibition of c-MYC G4 quadruplex DNA mutant in HEK293T cells co-transfected with Renilla and firefly luciferase assessed as decrease in relative luciferase at 2.5 to 5 uM measured after 24 hrs by dual luciferase reporter assay. The class given is cell-based. The settings on record: Homo sapiens, dose 2.5-5 µM.
The test system of data set [24] is MDA-MB-231. In words: Downregulation of VEGF expression in human MDA-MB-231 cells measured after 48 hrs by western blot analysis. In kind it is functional, cell-based.
In data set [25] the test system is MDA-MB-231. Put plainly: Antitumor activity against human MDA-MB-231 cells xenografted in BALB/c-nu/nu mouse assessed as relative increment ratio at 1 mg/kg, ip measured for 24 days. The class given is functional. The settings on record: time 24 day.
Data set [26] deals with MDA-MB-231. In words: Antitumor activity against human MDA-MB-231 cells xenografted in BALB/c-nu/nu mouse assessed as tumor growth inhibition at 1 mg/kg, ip measured for 24 days. The settings on record: MDA-MB-231, 576 h, time 24 day, read-out: TGI. The class given is functional.

Activity calls are given as the source filed them. The calls are words filed in the database; no cut-off is given here. A value given as a limit tells only on which side of the number the result lay.

For orientation: ΔTm means the shift of the melting midpoint relative to a reference. By Kd is commonly meant the constant that tells how readily two partners part at equilibrium. The term IC50 denotes the concentration that inhibits the measured activity by half. Consider `CCn1c2ccccc2c2cc(-c3nc(-c4ccc(N5CCN(C)CC5)cc4)c(-c4ccc(N5CCN(C)CC5)cc4)n3-c3ccc(OC)cc3)ccc21`, for which the ΔTm in the data set with Quadruplex DNA [1] turned out to be 12.5 °C. Also, the Kd at Quadruplex DNA [2] is 7 µM; in data set [3], 15.1 µM; in data set [4], 15.1 µM; in [5] it was > 20 µM; in data set [6], > 20 µM; in [7] it was > 20 µM. For the same molecule, the Kd at Quadruplex DNA [8] and on RNA was > 20 µM in each case. For the same molecule, the half-inhibitory concentration (IC50) with HepG2 [9] was determined as 6.1 µM; with MDA-MB-231 [10], 5.1 µM; in data set [12], 25.8 µM; in [13], 14.6 µM; in [14], 5 µM. Also, in [11], the IC50 at 48 h is 11.2 µM. Besides, the result with MDA-MB-231 [15], in the data set on Quadruplex DNA [17], in the data set on MDA-MB-231 [18], in the data set on MDA-MB-231 [19], in the data set on MCF7 and in the data set on HepG2 [20] was Active. In addition, in the data set on SiHa, the result was Active. The inhibition entry in the data set on Quadruplex DNA [16] was “Active”. In the data set with MDA-MB-231 [21], the Activity is 72.3%. Moreover, the inhibition in vivo at 2.5 mg/kg in the data set with MDA-MB-231 [22] was 55.5%.
For `CCn1c2ccccc2c2cc(-c3nc(-c4ccc(N5CCN(C)CC5)cc4)c(-c4ccc(N5CCN(C)CC5)cc4)n3-c3ccc(OCCOCCO)cc3)ccc21`, in the data set with Quadruplex DNA [1], the ΔTm was 20.8 °C. Moreover, the Kd at Quadruplex DNA [2] is 2.6 µM; in [3], 8.2 µM; in [4], 5.9 µM; in data set [5] it was 15.8 µM; in data set [6], > 20 µM; in data set [7] it was > 20 µM. Also, the Kd at Quadruplex DNA [8] and on RNA was > 20 µM in each case. The IC50 in data set [12] came to 1.1 µM; in [13], 3.9 µM; in [14], 8.2 µM.
Take `COc1ccc(-n2c(-c3ccc4c(c3)c3ccccc3n4Cc3cn(CCOCCO[C@@H]4O[C@H](COC(C)=O)[C@@H](OC(C)=O)[C@H](OC(C)=O)[C@H]4OC(C)=O)nn3)nc(-c3ccc(N4CCN(C)CC4)cc3)c2-c2ccc(N3CCN(C)CC3)cc2)cc1`: the ΔTm with Quadruplex DNA [1] is 15.9 °C. For the same molecule, the Kd on Quadruplex DNA [2] was 3 µM; in data set [3], > 20 µM; in [4], > 20 µM; in [5] it was > 20 µM; in data set [6] it was > 20 µM; in [7], > 20 µM. Besides, the Kd on Quadruplex DNA [8] and on RNA was > 20 µM throughout. The figures for the IC50 in the data set on HepG2 [9] and with MDA-MB-231 [10] were 11 µM and 6.4 µM, respectively. The IC50 at 48 h in data set [11] turned out to be 19.3 µM.
With `Cc1sc2c(c1C)C(c1ccc(Cl)cc1)=NC(CC(=O)OC(C)(C)C)c1nnc(C)n1-2` (centres undefined), the inhibition entry in the data set on Quadruplex DNA [16] was “Active”. For the same molecule, the result with Quadruplex DNA [17], with Quadruplex DNA [23], in the data set on MDA-MB-231 [18], in the data set on MDA-MB-231 [19] and in the data set with MDA-MB-231 [24] was Active.
As for `CCn1c2ccccc2c2cc(-c3nc(-c4ccc(N5CCN(C)CC5)cc4)c(-c4ccc(N5CCN(C)CC5)cc4)n3-c3ccc(OCCOCCOC4(C)O[C@H]5O[C@H](COC(C)=O)[C@@H](OC(C)=O)[C@H](OC(C)=O)[C@H]5O4)cc3)ccc21` (single isomer, unassigned), the ΔTm in the data set on Quadruplex DNA [1] was determined as 22.1 °C. The Kd at Quadruplex DNA [2] is 1.8 µM; in data set [3], 12.7 µM; in data set [4], 13.9 µM; in [5], > 20 µM; in data set [6], > 20 µM; in data set [7], > 20 µM. The Kd at Quadruplex DNA [8] and on RNA was > 20 µM throughout. Moreover, the IC50 with HepG2 [9] amounted to 3 µM; in the data set on MDA-MB-231 [10], 2.9 µM; in data set [12], 3.7 µM; in data set [13], 6.8 µM; in data set [14], 15.9 µM. In [11], the half-maximal inhibitory concentration (IC50) at 48 h was found to be 77.8 µM.
Regarding `CCn1c2ccccc2c2cc(-c3nc(-c4ccc(N5CCN(C)CC5)cc4)c(-c4ccc(N5CCN(C)CC5)cc4)n3-c3ccc(OCCCOC4(C)O[C@H]5O[C@H](COC(C)=O)[C@@H](OC(C)=O)[C@H](OC(C)=O)[C@H]5O4)cc3)ccc21` (single isomer, unassigned), the ΔTm with Quadruplex DNA [1] is 16 °C. Further, the Kd at Quadruplex DNA [2] is 4.1 µM; in data set [3], > 20 µM; in [4], > 20 µM; in data set [5] it was > 20 µM; in [6] it was > 20 µM; in [7] it was > 20 µM. In addition, the dissociation constant Kd at Quadruplex DNA [8] and on RNA was > 20 µM each time. Moreover, the IC50 in the data set with HepG2 [9] was 7.8 µM; with MDA-MB-231 [10] it was 3.6 µM. The IC50 at 48 h in [11] stood at 4.4 µM.
Regarding `COc1cccc2c1C(=O)c1c(O)c3c(c(O)c1C2=O)C[C@@](O)(C(=O)CO)C[C@@H]3O[C@H]1C[C@H](N)[C@H](O)[C@H](C)O1` [DOXORUBICIN], the Activity in the data set on MDA-MB-231 [25] was 85.4%. For the same molecule, in the data set on MDA-MB-231 [26], the inhibition in vivo at 1 mg/kg turned out to be 80.2%.

The record behind these values is ChEMBL document CHEMBL5104180, “Design, Synthesis, and Evaluation of New Sugar-Substituted Imidazole Derivatives as Selective c-MYC Transcription Repressors Targeting the Promoter G-Quadruplex” (J Med Chem, 2022).
